These are literature values, as cited in patent US9629360B2, “Water-based pesticidal suspension” (priority 2010, dated 2017).

The conditions of this data set: 20° C.

Converted amounts (≈) assume the structure as drawn.

As usually defined, the aqueous solubility is the dissolved amount per volume that the medium holds. As to `COP(=O)(OC)SCn1c(=O)oc2cc(Cl)cnc21` [azamethiphos], the aqueous solubility is 1100 µg/mL (≈ 3.39 mM).
With `Cc1nc(N(C)C)nc(OC(=O)N(C)C)c1C` [pirimicarb], the aqueous solubility was 3100 µg/mL (≈ 13 mM).
